# Measured values reported in ChEMBL document CHEMBL1141743, “Malyngamides M and N from the Hawaiian Red Alga Gracilaria coronopifolia” (J Nat Prod, 1998).
# Assay: Cytotoxicity against mouse NB cells
# Assay type: functional, cell-based
row,SMILES,IC50
1,CCCCCCC[C@@H](C/C=C/CCC(=O)N(C)C/C(=C/Cl)[C@]12O[C@H]1C[C@@H](OC(C)=O)[C@@H](C)C2=O)OC,12 µM
2,CCCCCCC[C@@H](C/C=C/CCC(=O)N(C)C/C(=C/Cl)c1cccc(C)c1O)OC [MALYNGAMIDE M],> 20 µM
3,CCCCCCC[C@@H](C/C=C/CCC(=O)N(C)C/C(=C/Cl)[C@]12O[C@H]1CC=C(C)C2=O)OC [MALYNGAMIDE N],12 µM
